Reference: patent US20250163043A1 (TRANSTHERA SCIENCES (NANJING), INC., priority 2021, published 2025)

Tests used:
Type in all cases: biochemical
[1] = target: CDK3/CycE1 (Homo sapiens, UniProt Q00526); experiment: ADP-Glo kinase assay on CDK enzymatic activity, CDK3/CycE1; conditions: 10 concentrations from 10 μM, 4-fold, 60 min room temperature
Text: (§1) Test samples: the compounds of the present invention, having structures shown above.
(§2) ADP-Glo Kinase Assay (ADP-Glo kinase kit), DMSO (dimethyl sulfoxide), CDK9/CycT1 (cyclin-dependent kinase 9/cyclin T1), CDK tide (cyclin-dependent kinase substrate peptide fragments), CDK1/CycE1 (cyclin-dependent kinase 1/cyclin E1), CDK2/CycA2 (cyclin-dependent kinase 2/cyclin A2), CDK3/CycE1 (cyclin-dependent kinase 3/cyclin E1), CDK4/CycD3 (cyclin-dependent kinase 4/cyclin D3), CDK5/p25NCK (cyclin-dependent kinase 5/p25), and AZD 4573.
(§3) A 384-well white plate, a 96-well plate, a microplate oscillator, a centrifuge, and a microplate reader.
(§4) The compounds were dissolved in DMSO and diluted 4-fold in the 96-well plate to obtain stock solutions with 10 concentration gradients, and added into a 384-well plate system to obtain a series of 10 concentration gradients of compound solutions with final concentrations of 10 μM starting and 4-fold gradient decreasing. 1 μM AZD4573 was used as compound positive control (PC) and 0.5% DMSO as solvent vehicle control (VC), ten duplicated wells each for PC and VC.
(§5) 1 μL of compound solution and 2 μL of 2× kinase solution were transferred to each well, and the plate was centrifuged at 1000 g for 30 s and left at room temperature for 10 min. A mixture of 2× substrate and ATP was prepared in 1× kinase buffer. The reaction was started after adding 2 μL of substrate and ATP into the plate. The plate was centrifuged at 1000 g for 30 s. The assay plate was closed and left at room temperature for 60 min. The reaction system was added with 4 μL of ADP Glo reagent, centrifuged at 1000 rpm for 1 min, and incubated at room temperature for 40 min. The reaction system was added with 8 μL of kinase assay reagent, centrifuged at 1000 rpm for 1 min and incubated at room temperature for 40 min. The […] was read on Biotek.
(§6) The inhibition rate was calculated according to the following formula: […]
(§7) Lumcmpd: compound fluorescence reading; Lumpositive: average value of the fluorescence reading of positive compound control; Lumvehicle: average value of the fluorescence reading of solvent vehicle control.
(§8) IC50 values were fitted using GraphPad 7.0 based on inhibition rates of compounds at different concentrations.

[2] = target: CDK5/p25NCK (Homo sapiens, UniProt Q00535); experiment: ADP-Glo kinase assay on CDK enzymatic activity, CDK5/p25NCK; conditions: 10 concentrations from 10 μM, 4-fold, 60 min room temperature
Text: as §1, §2, §3, §4, §5, §6, §7, §8

[3] = target: CDK9/CycT1 (Homo sapiens, UniProt P50750); experiment: ADP-Glo kinase assay on CDK enzymatic activity, CDK9/CycT1; conditions: 10 concentrations from 10 μM, 4-fold, 60 min room temperature
Text: as §1, §2, §3, §4, §5, §6, §7, §8

[4] = target: CDK2/CycA2 (Homo sapiens, UniProt P24941); experiment: ADP-Glo kinase assay on CDK enzymatic activity, CDK2/CycA2; conditions: 10 concentrations from 10 μM, 4-fold, 60 min room temperature
Text: as §1, §2, §3, §4, §5, §6, §7, §8

[5] = target: CDK1/CycE1 (Homo sapiens, UniProt P06493); experiment: ADP-Glo kinase assay on CDK enzymatic activity, CDK1/CycE1; conditions: ADP-Glo; 10 concentrations from 10 μM, 4-fold; 60 min room temperature; read-out: CDK1/CycE1/nM (IC50)
Procedure: as §1, §3, §4, §5, §6, §7, §8

Chain of CDK9/CycT1 (P50750 whole entry): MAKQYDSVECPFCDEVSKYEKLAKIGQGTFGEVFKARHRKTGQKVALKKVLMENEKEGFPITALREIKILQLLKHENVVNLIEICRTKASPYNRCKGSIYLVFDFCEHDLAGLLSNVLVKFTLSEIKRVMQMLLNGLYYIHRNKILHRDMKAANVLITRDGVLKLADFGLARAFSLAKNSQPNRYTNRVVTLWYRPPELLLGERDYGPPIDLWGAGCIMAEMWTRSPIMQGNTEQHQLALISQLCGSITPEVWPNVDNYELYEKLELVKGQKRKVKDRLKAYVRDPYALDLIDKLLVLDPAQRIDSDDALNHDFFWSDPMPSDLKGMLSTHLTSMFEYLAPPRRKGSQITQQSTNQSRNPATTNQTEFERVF
Chain of CDK9/CycT1 (O60563 whole entry partner): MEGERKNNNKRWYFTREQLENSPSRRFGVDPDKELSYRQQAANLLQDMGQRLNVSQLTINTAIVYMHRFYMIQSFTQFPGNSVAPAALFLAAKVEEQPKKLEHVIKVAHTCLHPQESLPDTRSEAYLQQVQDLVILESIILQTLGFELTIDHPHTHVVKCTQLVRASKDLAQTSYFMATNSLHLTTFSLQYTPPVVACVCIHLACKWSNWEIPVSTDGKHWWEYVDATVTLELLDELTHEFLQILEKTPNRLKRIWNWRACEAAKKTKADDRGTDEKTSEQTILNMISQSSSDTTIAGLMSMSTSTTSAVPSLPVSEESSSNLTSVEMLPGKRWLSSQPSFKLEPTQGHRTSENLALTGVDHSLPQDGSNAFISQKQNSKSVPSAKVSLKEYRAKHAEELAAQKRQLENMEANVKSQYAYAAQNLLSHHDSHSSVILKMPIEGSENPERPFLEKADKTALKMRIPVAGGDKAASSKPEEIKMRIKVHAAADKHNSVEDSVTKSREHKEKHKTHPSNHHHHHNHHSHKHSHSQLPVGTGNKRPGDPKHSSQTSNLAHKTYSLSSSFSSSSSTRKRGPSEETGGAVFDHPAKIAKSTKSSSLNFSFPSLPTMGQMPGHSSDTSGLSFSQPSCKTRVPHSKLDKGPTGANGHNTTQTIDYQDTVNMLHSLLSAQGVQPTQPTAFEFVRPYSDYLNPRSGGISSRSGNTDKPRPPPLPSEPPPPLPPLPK
Chain of CDK1/CycE1 (P06493 whole entry, species assumed): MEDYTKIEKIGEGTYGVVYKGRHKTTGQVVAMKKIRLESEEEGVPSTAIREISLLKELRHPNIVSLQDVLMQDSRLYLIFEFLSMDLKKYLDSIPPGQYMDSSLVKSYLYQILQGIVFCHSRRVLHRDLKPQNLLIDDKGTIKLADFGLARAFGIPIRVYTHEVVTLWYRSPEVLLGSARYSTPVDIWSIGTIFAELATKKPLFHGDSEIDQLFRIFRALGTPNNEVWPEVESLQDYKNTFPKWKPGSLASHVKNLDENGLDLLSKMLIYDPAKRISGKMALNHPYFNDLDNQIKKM
Chain of CDK1/CycE1 (P24864 whole entry partner, species assumed): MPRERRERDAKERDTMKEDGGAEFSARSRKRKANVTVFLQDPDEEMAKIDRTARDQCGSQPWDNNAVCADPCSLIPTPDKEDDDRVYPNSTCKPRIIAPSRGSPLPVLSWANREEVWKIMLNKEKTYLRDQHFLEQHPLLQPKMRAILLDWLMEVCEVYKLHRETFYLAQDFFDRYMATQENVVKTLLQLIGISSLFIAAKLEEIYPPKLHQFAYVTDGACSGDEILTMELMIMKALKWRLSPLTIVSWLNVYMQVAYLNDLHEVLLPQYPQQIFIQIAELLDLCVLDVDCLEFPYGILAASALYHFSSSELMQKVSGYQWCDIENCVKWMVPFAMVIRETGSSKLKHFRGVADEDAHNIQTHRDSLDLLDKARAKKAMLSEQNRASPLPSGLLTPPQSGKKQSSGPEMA
Chain of CDK5/p25NCK (Q00535 whole entry, species assumed): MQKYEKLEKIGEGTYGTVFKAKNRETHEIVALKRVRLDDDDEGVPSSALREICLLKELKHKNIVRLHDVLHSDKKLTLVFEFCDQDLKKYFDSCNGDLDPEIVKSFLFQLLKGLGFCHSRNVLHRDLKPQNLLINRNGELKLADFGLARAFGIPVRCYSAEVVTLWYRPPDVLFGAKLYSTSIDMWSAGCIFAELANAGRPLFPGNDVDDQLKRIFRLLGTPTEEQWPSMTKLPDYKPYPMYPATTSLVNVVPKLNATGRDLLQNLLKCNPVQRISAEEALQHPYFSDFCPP
Chain of CDK5/p25NCK (Q15078 99-307 partner limits assumed, species assumed): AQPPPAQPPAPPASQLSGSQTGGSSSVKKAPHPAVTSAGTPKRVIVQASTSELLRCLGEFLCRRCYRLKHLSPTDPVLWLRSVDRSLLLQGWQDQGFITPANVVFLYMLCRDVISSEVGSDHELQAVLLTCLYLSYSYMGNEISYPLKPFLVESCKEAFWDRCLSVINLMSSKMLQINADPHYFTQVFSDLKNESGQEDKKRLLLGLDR
Chain of CDK3/CycE1 (Q00526 whole entry, species assumed): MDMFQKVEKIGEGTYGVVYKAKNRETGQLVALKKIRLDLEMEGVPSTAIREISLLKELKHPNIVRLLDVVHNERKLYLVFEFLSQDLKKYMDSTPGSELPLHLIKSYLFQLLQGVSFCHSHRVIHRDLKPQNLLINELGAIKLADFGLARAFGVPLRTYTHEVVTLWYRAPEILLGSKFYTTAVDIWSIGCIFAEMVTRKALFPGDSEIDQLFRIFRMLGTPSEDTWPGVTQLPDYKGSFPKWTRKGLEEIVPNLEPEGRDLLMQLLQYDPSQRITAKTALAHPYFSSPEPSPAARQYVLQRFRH
Chain of CDK3/CycE1 (P24864 whole entry partner, species assumed): as the sequence (P24864 whole entry partner, species assumed) above

SMILES	IC50 [1] [nM]	IC50 [2] [nM]	IC50 [3] [nM]	IC50 [4] [nM]	IC50 [5] [nM]
N#Cc1cc2cnc(N[C@H]3CC[C@H](N)C3)cc2c(NCC2(C#N)CCOCC2)n1 [Compound 60, 7-(((1S,3S)-3-aminocyclopentyl)amino)-1-(((4-cyanotetrahydro-2H-pyran-4-yl)methyl)amino)-2,6-naphthyridine-3-carbonitrile]	≥ 12100	8390	29	1810	–
CC(C)Nc1nc(C#N)cc2cnc(N[C@@H]3CCCNC3)cc12 [Compound 39, (R)-1-(isopropylamino)-7-(piperidin-3-ylamino)-2,6-naphthyridine-3-carbonitrile]	278	161	2	84	–
N#Cc1cc2cnc(N[C@H]3C[C@H](N)C3)nc2c(N[C@@H]2CCOC2)n1 [Compound C13, 2-(((1r,3R)-3-aminocyclobutyl)amino)-8-(((R)-tetrahydrofuran-3-yl)amino)pyrido[3,4-d]pyrimidine-6-carbonitrile]	–	–	2	85	187
CC(C)Nc1nc(C#N)cc2cnc(N[C@H]3C[C@H](CN)C3)nc12 [Compound C16, 2-(((1r,3r)-3-(aminomethyl)cyclobutyl)amino)-8-(isopropylamino)pyrido[3,4-d]pyrimidine-6-carbonitrile]	–	–	2	22	81
CCCNc1nc(C#N)cc2cnc(N[C@H]3C[C@H](N)C3)nc12 [Compound C14, 2-(((1r,3r)-3-aminocyclobutyl)amino)-8-(propylamino)pyrido[3,4-d]pyrimidine-6-carbonitrile]	–	–	2	32	127
CC(C)Nc1nc(C(F)F)cc2cnc(N[C@H]3C[C@H](N)C3)cc12 [Compound 206, N^7-((1r,3r)-3-aminocyclobutyl)-3-(difluoromethyl)-N^1-isopropyl-2,6-naphthyridine-1,7-diamine]	–	–	1	6	25
COC[C@@H](C)Nc1nc(C#N)cc2cnc(N[C@H]3C[C@H](N)C3)nc12 [Compound C41, 2-(((1r,3R)-3-aminocyclobutyl)amino)-8-(((R)-1-methoxypropan-2-yl)amino)pyrido[3,4-d]pyrimidine-6-carbonitrile]	–	–	1	82	540
CC(C)Nc1nc(C#N)cc2cnc(N[C@H]3C[C@H](N4CCN(C)CC4)C3)nc12 [Compound C22, 8-(isopropylamino)-2-(((1r,3r)-3-(4-methylpiperazin-1-yl)cyclobutyl)amino)pyrido[3,4-d]pyrimidine-6-carbonitrile]	–	–	2	24	218
N#Cc1cc2cnc(N[C@H]3CCCNC3)cc2c(C2CCCC2)n1 [Compound 187, (S)-1-cyclopentyl-7-(piperidin-3-ylamino)-2,6-naphthyridine-3-carbonitrile]	–	–	8	958	413
CC(C)Nc1nc(C#N)cc2cnc(N[C@H]3C[C@](C)(N)C3)cc12 [Compound 209, 7-((trans)-3-amino-3-methylcyclobutyl)amino-1-(isopropylamino)-2,6-naphthyridine-3-carbonitrile]	–	–	2	306	170
CC(C)Nc1nc(C#N)cc2cnc(Nc3cc(CS(C)(=N)=O)ccn3)cc12 (centres unmarked) [Compound 170, 1-(isopropylamino)-7-((4-((S-methylsulfonimidoyl)methyl)pyridin-2-yl)amino)-2,6-naphthyridine-3-carbonitrile]	–	–	4	34	144
CC(C)Nc1nc(C#N)cc2cnc(N[C@H]3C[C@H](N)C3)cc12 [Compound 183, 7-(((1r,3r)-3-aminocyclobutyl)amino)-1-(isopropylamino)-2,6-naphthyridine-3-carbonitrile]	–	–	1	28	50
N#Cc1cc2cnc(N[C@H]3C[C@H](N)C3)cc2c(N[C@@H]2CCOC2)n1 [Compound 179, 7-(((trans)-3-aminocyclobutyl)amino)-1-(((R)-tetrahydrofuran-3-yl)amino)-2,6-naphthyridine-3-carbonitrile]	–	–	1	144	272
CCNc1nc(C#N)cc2cnc(N[C@H]3C[C@H](N)C3)nc12 [Compound C28, 2-(((1r,3r)-3-aminocyclobutyl)amino)-8-(ethylamino)pyrido[3,4-d]pyrimidine-6-carbonitrile]	–	–	1	34	186
CC1(Nc2nc(C#N)cc3cnc(N[C@H]4C[C@H](N)C4)nc23)CC1 [Compound C35, 2-(((1r,3r)-3-aminocyclobutyl)amino)-8-((1-methylcyclopropyl)amino)pyrido[3,4-d]pyrimidine-6-carbonitrile]	–	–	1	19	112
CC(C)Nc1nc(C#N)cc2cnc(N[C@H]3C[C@H](O)C3)nc12 [Compound 134, 2-(((1r,3r)-3-hydroxycyclobutyl)amino)-8-(isopropylamino)pyrido[3,4-d]pyrimidine-6-carbonitrile]	–	–	1	5	11
CC(C)Nc1nc(C#N)cc2cnc(N[C@H]3C[C@](C)(N)C3)nc12 [Compound C26, 2-(((1r,3r)-3-amino-3-methylcyclobutyl)amino)-8-(isopropylamino)pyrido[3,4-d]pyrimidine-6-carbonitrile]	–	–	1	93	34
CC(C)Nc1nc(C#N)cc2cnc(N[C@H]3C[C@H](O)C3)cc12 [Compound 166, 7-(((1r,3r)-3-hydroxycyclobutyl)amino)-1-(isopropylamino)-2,6-naphthyridine-3-carbonitrile]	–	–	2	10	14
CC(C)Nc1nc(C(F)F)cc2cnc(Nc3cc(CS(C)(=N)=O)ccn3)cc12 (centres unmarked) [Compound 163, ((2-((7-(difluoromethyl)-5-(isopropylamino)-2,6-naphthyridin-3-yl)amino)pyridin-4-yl)methyl)(methyl)sulfinylimine]	–	–	2	7	31
N#Cc1cc2cnc(N[C@H]3CCCNC3)cc2c(N2CCCC2)n1 [Compound 169, (S)-7-(piperidin-3-ylamino)-1-(pyrrolidin-1-yl)-2,6-naphthyridine-3-carbonitrile]	–	–	5	2210	798
CC(C)Nc1nc(C#N)cc2cnc(N[C@H]3C[C@H](CO)C3)nc12 [Compound C31, 2-(((1r,3r)-3-(hydroxymethyl)cyclobutyl)amino)-8-(isopropylamino)pyrido[3,4-d]pyrimidine-6-carbonitrile]	–	–	2	5	21
CC(C)Nc1nc(C#N)cc2cnc(N[C@H]3CC[C@H](N4CCOCC4)CC3)nc12 [Compound 141, 8-(isopropylamino)-2-(((1r,4r)-4-morpholinocyclohexyl)amino)pyrido[3,4-d]pyrimidine-6-carbonitrile]	–	–	2	23	197
CC(=O)N[C@H]1C[C@@H](Nc2cc3c(NC(C)C)nc(C#N)cc3cn2)C1 [Compound 167, N-((1s,3s)-3-((7-cyano-5-(isopropylamino)-2,6-naphthyridin-3-yl)amino)cyclobutyl)acetamide]	–	–	2	19	55
CCN(CC)c1nc(C#N)cc2cnc(N[C@H]3CCCNC3)cc12 [Compound 171, (S)-1-(diethylamino)-7-(piperidin-3-ylamino)-2,6-naphthyridine-3-carbonitrile]	–	–	4	815	638
CC(C)(C)Nc1nc(C#N)cc2cnc(N[C@H]3C[C@@H](N)C3)cc12 [Compound 172, 7-(((1s,3s)-3-aminocyclobutyl)amino)-1-(tert-butylamino)-2,6-naphthyridine-3-carbonitrile]	–	–	1	287	395
CC(C)Nc1nc(C#N)cc2cnc(N[C@H]3CCCCNC3)nc12 [Compound C6, (S)-2-(azepan-3-ylamino)-8-(isopropylamino)pyrido[3,4-d]pyrimidine-6-carbonitrile]	–	–	4	330	202
